Laboratory results reported in US20070149535A1, “Protein kinase inhibitors” (ONCALIS AG, priority 2004, published 2007).

Experiments:
Experiment in all cases: Yeast growth assay, specificity profiling;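 on EGFR (L858R) growth restoration: Parenthesized + marks a result obtained in a different yeast background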
Assay type in all cases: cell-based
FGFR-1 = molecular target: T1, FGFR-1 (Homo sapiens, UniProt P11362); parameters: key: “−” indicates no growth restoration i.e. no activity against the particular kinase; “+”, “++”, and “+++” indicate activity detected by restoration of growth, classified into three categories of potency; “+”, “++”, and “+++” indicate activity detected by restoration of growth, classified into three categories of potency; “+”, “++”, and “+++” indicate activity detected by restoration of growth, classified into three categories of potency; details: 7 concentrations between 0.2 and 100 μM
T1 construct: expressed in transfected cells; host or cells: yeast
Experimental: (§1) Specificity Profiling: Yeast Growth Assay
(§2) The yeast growth assay was performed as described in “Method for the identification and/or validation of receptor tyrosine kinase inhibitors” PCT/CH03/00694 (2004/10/24), section “Modes for Carrying out the Invention, Experiment 1 and Experiment 2.
(§3) Briefly, yeast cells carrying plasmids with the RTK of interest were grown in glucose containing medium (repressing expression). The cultures were diluted into galactose containing medium, which induces the expression of the kinase. Expression of the kinase inhibits growth of the yeast cells, which allows for positive selection of kinase inhibitors restoring growth of cells. Compounds were titrated at 7 concentrations between 0.2 and 100 μM.
(§4) Specificity profiling of compounds, using the yeast growth assay method described above. “−” indicates no growth restoration i.e. no activity against the particular kinase, “+”, “++”, and “+++” indicate activity detected by restoration of growth, classified into three categories of potency according to the maximal level of growth restoration reached and the concentration at which the maximal growth restoration is reached.

InsR = molecular target: T2, InsR (Homo sapiens, UniProt P06213); parameters: key: “−” indicates no growth restoration i.e. no activity against the particular kinase; “+”, “++”, and “+++” indicate activity detected by restoration of growth, classified into three categories of potency; “+”, “++”, and “+++” indicate activity detected by restoration of growth, classified into three categories of potency; “+”, “++”, and “+++” indicate activity detected by restoration of growth, classified into three categories of potency; details: 7 concentrations between 0.2 and 100 μM
T2 construct: expressed in transfected cells; host or cells: yeast
Experimental: as §1, §2, §3, §4

PDGFRb = molecular target: T3, PDGFRb (Homo sapiens, UniProt P09619); parameters: key: “−” indicates no growth restoration i.e. no activity against the particular kinase; “+”, “++”, and “+++” indicate activity detected by restoration of growth, classified into three categories of potency; “+”, “++”, and “+++” indicate activity detected by restoration of growth, classified into three categories of potency; “+”, “++”, and “+++” indicate activity detected by restoration of growth, classified into three categories of potency; details: 7 concentrations between 0.2 and 100 μM
T3 construct: expressed in transfected cells; host or cells: yeast
Experimental: as §1, §2, §3, §4

TEK = molecular target: T4, TEK (Homo sapiens, UniProt Q02763); parameters: key: “−” indicates no growth restoration i.e. no activity against the particular kinase; “+”, “++”, and “+++” indicate activity detected by restoration of growth, classified into three categories of potency; “+”, “++”, and “+++” indicate activity detected by restoration of growth, classified into three categories of potency; “+”, “++”, and “+++” indicate activity detected by restoration of growth, classified into three categories of potency; details: 7 concentrations between 0.2 and 100 μM
T4 construct: expressed in transfected cells; host or cells: yeast
Experimental: as §1, §2, §3, §4

EphB2 = molecular target: T5, EphB2 (Homo sapiens, UniProt P29323); parameters: key: “−” indicates no growth restoration i.e. no activity against the particular kinase; “+”, “++”, and “+++” indicate activity detected by restoration of growth, classified into three categories of potency; “+”, “++”, and “+++” indicate activity detected by restoration of growth, classified into three categories of potency; “+”, “++”, and “+++” indicate activity detected by restoration of growth, classified into three categories of potency; details: 7 concentrations between 0.2 and 100 μM
T5 construct: expressed in transfected cells; host or cells: yeast
T5 sequence (P29323 19-1055): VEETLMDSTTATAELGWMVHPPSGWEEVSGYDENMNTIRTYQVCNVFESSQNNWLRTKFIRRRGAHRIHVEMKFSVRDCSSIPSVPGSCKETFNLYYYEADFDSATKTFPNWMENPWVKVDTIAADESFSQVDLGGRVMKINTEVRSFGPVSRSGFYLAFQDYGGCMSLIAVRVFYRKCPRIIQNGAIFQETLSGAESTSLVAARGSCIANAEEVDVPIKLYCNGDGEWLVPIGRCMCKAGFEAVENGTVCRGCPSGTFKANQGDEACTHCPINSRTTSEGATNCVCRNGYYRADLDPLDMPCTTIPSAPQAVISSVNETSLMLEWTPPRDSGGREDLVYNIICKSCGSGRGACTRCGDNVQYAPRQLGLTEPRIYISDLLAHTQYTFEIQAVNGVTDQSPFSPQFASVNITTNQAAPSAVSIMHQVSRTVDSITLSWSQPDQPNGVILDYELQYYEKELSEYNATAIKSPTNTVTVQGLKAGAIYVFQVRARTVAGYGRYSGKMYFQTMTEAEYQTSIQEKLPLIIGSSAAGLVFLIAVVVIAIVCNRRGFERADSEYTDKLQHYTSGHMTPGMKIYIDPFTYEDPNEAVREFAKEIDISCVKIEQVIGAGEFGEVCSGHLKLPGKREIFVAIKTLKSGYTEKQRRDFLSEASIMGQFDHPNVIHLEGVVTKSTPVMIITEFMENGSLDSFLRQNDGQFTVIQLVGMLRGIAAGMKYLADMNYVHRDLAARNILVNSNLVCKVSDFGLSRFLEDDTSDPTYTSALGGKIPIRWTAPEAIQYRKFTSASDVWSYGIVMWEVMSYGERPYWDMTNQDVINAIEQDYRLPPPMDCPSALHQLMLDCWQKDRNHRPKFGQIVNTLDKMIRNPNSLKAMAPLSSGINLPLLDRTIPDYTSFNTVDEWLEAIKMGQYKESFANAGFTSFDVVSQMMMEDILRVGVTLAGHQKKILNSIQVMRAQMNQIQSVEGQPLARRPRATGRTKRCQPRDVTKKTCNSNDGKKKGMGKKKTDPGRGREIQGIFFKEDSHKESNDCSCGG
Experimental: as §1, §2, §3, §4

FGFR-4 = molecular target: T6, FGFR-4 (Homo sapiens, UniProt P22455); parameters: key: “−” indicates no growth restoration i.e. no activity against the particular kinase; “+”, “++”, and “+++” indicate activity detected by restoration of growth, classified into three categories of potency; “+”, “++”, and “+++” indicate activity detected by restoration of growth, classified into three categories of potency; “+”, “++”, and “+++” indicate activity detected by restoration of growth, classified into three categories of potency; details: 7 concentrations between 0.2 and 100 μM
T6 construct: expressed in transfected cells; host or cells: yeast
Experimental: as §1, §2, §3, §4

EGFR (L858R) = molecular target: T7, EGFR (L858R) (Homo sapiens, UniProt P00533, L858R); parameters: key: (+) in a different yeast background; details: in a different yeast background;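 further: Parenthesized + marks a result obtained in a different yeast background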
T7 construct: expressed in transfected cells; host or cells: yeast
Experimental: as §1, §2, §3, §4

T2 sequence (P06213 28-1382): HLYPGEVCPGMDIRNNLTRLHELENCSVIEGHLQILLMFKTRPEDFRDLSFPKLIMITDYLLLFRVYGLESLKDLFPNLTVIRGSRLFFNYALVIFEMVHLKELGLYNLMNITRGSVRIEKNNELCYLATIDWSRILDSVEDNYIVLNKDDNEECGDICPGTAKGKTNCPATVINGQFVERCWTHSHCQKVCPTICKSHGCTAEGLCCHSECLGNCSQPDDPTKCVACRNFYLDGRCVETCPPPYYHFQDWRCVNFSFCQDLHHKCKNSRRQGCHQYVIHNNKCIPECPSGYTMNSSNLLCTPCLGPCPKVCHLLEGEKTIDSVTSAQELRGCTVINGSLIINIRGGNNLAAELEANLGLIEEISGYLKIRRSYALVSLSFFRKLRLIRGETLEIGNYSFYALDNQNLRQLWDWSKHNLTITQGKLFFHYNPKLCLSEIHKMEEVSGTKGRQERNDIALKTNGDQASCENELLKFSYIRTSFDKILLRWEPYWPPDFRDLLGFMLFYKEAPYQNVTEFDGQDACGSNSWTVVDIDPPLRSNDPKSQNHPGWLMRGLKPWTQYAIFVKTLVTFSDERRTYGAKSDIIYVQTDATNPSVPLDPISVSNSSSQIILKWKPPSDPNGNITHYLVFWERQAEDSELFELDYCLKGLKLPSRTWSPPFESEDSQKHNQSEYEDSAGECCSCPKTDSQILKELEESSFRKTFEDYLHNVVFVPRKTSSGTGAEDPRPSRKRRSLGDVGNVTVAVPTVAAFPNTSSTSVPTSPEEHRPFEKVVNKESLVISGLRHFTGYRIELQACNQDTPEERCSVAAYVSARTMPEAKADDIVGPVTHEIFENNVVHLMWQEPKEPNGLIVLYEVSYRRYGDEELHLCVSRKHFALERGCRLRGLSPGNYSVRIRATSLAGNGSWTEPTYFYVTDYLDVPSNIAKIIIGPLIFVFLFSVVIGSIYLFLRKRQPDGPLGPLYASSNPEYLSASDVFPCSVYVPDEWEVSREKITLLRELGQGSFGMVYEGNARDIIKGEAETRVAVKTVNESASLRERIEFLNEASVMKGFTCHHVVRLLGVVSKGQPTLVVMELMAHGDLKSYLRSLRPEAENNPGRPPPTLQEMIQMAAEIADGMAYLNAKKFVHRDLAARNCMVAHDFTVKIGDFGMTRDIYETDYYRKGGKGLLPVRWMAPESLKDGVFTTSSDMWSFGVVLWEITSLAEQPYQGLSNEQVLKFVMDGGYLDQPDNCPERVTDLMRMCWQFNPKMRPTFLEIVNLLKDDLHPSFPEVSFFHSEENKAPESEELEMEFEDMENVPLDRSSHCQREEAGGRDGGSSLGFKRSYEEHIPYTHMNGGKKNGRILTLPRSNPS
T4 sequence (Q02763 23-1124): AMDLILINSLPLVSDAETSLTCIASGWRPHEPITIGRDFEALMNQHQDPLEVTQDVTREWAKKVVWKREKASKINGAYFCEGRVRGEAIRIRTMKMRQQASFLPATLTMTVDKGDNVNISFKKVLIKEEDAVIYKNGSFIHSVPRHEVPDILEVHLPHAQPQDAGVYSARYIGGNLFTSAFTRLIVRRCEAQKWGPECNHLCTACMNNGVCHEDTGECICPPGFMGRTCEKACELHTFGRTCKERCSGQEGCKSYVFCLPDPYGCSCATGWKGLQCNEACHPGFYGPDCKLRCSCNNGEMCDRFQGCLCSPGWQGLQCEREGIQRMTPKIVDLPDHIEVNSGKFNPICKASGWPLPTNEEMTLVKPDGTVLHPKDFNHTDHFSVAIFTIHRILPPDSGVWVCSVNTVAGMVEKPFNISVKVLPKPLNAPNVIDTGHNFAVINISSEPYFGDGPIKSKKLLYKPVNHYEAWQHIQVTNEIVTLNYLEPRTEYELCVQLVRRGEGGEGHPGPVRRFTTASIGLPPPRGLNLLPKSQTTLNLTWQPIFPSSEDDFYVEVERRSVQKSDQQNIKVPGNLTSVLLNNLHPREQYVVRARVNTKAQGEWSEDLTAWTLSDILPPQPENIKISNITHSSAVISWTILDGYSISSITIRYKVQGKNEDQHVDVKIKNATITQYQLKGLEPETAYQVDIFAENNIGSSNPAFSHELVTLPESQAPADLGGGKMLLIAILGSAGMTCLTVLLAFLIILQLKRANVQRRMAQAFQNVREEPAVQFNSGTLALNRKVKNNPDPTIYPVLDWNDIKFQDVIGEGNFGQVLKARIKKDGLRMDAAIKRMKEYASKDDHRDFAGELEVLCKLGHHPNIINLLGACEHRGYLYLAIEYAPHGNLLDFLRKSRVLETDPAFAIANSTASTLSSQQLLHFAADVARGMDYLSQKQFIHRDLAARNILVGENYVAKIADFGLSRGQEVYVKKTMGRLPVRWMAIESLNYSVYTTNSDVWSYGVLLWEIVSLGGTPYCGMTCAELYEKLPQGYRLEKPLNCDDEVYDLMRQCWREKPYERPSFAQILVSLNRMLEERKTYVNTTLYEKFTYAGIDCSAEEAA
T6 sequence (P22455 22-802): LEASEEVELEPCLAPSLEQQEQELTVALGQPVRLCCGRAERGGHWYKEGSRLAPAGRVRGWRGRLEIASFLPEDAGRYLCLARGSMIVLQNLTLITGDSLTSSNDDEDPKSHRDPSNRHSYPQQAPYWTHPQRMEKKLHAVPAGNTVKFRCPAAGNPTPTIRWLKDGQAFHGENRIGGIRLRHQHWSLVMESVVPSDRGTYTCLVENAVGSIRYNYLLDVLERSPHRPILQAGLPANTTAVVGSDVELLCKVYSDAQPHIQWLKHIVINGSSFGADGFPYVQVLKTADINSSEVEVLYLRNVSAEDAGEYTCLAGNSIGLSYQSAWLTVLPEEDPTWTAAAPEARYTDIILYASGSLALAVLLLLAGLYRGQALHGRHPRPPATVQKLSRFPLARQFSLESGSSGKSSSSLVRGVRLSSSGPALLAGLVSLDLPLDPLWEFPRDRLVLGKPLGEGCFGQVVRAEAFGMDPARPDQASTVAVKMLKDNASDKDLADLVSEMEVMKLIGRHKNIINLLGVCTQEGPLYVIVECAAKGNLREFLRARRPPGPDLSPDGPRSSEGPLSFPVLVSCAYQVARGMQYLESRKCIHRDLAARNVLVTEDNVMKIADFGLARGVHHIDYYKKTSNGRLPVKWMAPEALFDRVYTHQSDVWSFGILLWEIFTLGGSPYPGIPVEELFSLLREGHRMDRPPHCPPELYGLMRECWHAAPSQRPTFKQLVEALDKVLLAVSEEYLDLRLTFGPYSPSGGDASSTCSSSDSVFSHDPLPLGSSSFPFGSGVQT
T3 sequence (P09619 33-1106): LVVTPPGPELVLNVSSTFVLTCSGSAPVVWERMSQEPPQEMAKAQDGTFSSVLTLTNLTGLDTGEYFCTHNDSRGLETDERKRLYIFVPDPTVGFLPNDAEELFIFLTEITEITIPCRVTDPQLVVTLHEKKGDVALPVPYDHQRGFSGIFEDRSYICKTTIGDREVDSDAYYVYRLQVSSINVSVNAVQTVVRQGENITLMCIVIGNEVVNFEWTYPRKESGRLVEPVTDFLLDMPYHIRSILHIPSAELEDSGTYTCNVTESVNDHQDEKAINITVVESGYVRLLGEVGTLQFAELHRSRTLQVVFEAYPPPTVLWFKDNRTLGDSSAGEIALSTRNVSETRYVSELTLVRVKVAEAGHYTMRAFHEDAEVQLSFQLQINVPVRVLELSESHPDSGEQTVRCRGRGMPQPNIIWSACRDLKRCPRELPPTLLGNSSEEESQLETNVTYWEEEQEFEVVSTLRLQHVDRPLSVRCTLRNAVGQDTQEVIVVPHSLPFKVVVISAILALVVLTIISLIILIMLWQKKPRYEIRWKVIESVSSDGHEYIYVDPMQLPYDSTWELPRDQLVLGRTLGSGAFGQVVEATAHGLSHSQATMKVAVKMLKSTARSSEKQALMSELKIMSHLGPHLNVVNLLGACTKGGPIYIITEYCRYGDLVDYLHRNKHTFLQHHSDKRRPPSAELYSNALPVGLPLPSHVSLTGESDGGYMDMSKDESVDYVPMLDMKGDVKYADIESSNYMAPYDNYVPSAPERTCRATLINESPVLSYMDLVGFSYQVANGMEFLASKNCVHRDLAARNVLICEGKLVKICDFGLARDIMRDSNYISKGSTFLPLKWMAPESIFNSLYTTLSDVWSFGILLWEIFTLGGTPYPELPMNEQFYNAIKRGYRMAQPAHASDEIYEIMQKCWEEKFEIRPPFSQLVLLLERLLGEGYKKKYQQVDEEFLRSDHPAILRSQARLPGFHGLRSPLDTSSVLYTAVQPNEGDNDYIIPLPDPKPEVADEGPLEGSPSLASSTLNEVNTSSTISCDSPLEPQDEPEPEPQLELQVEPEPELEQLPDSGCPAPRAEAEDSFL
T1 sequence (P11362 22-822): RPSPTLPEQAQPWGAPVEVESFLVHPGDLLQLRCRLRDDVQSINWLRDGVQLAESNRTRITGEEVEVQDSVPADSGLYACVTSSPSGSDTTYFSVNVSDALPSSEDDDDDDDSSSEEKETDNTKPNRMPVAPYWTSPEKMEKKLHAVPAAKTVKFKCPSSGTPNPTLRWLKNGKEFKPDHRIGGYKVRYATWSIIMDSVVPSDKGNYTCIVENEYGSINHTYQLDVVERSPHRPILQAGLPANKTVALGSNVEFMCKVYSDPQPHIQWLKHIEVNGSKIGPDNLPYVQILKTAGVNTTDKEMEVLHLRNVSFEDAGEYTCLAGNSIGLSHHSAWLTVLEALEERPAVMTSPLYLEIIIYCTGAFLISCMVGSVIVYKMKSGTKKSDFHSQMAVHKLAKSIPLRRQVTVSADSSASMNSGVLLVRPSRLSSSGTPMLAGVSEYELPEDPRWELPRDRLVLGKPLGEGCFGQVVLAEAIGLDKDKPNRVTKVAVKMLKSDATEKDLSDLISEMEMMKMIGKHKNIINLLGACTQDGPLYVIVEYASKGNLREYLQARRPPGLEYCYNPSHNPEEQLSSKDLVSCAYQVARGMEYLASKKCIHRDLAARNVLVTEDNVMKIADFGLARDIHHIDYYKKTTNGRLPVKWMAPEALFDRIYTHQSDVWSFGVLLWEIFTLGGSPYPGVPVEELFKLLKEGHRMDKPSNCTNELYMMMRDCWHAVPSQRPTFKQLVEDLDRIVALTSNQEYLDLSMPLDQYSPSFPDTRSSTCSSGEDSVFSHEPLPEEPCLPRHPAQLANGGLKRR

Clc1ccc(Nc2c(-c3ccccc3)nc3cnccn23)cc1 [compound 16, (4-Chloro-phenyl)-(2-phenyl-imidazo[1,2-a]pyrazin-3-yl)-amine]
FGFR-1 growth restoration (FGFR-1): − | InsR growth restoration (InsR): − | PDGFRb growth restoration (PDGFRb): − | TEK growth restoration (TEK): − | EphB2 growth restoration (EphB2): − | FGFR-4 growth restoration (FGFR-4): −

CC(=O)Nc1ccc(-c2nc3c(C)nccn3c2Nc2cccc(Cl)c2)cc1 [compound 33, N-{4-[3-(3-Chloro-phenylamino)-8-methyl-imidazo[1,2-a]pyrazin-2-yl]-phenyl}-acetamide]
EGFR (L858R) growth restoration (EGFR (L858R)): (+) | InsR growth restoration (InsR): − | TEK growth restoration (TEK): − | EphB2 growth restoration (EphB2): +++

Nc1ccc(-c2nc3cnccn3c2Nc2cccc(Cl)c2)cc1 [compound 10, [2-(4-Amino-phenyl)-imidazo[1,2-a]pyrazin-3-yl]-(3-chloro-phenyl)-amine]
EGFR (L858R) growth restoration (EGFR (L858R)): (+) | InsR growth restoration (InsR): − | TEK growth restoration (TEK): − | EphB2 growth restoration (EphB2): ++

Cc1nccn2c(Nc3ccc(F)c(F)c3)c(-c3ccccc3)nc12 [compound 45, (3,4-Difluoro-phenyl)-(8-methyl-2-phenyl-imidazo[1,2-a]pyrazin-3-yl)-amine]
FGFR-1 growth restoration (FGFR-1): − | InsR growth restoration (InsR): − | PDGFRb growth restoration (PDGFRb): − | TEK growth restoration (TEK): − | EphB2 growth restoration (EphB2): ++ | FGFR-4 growth restoration (FGFR-4): −

CC(=O)Nc1ccc(-c2nc3cnccn3c2Nc2cccc(Cl)c2)cc1 [compound 8, N-{4-[3-(3-Chloro-phenylamino)-imidazo[1,2-a]pyrazin-2-yl]-phenyl}-acetamide]
EGFR (L858R) growth restoration (EGFR (L858R)): (+) | InsR growth restoration (InsR): − | TEK growth restoration (TEK): − | EphB2 growth restoration (EphB2): ++

Cc1cccc(Nc2c(-c3ccccc3)nc3cnccn23)c1 [compound 34, (2-Phenyl-imidazo[1,2-a]pyrazin-3-yl)-m-tolyl-amine]
FGFR-1 growth restoration (FGFR-1): − | InsR growth restoration (InsR): − | PDGFRb growth restoration (PDGFRb): − | TEK growth restoration (TEK): − | EphB2 growth restoration (EphB2): − | FGFR-4 growth restoration (FGFR-4): −

Clc1cccc(Nc2c(-c3ccccc3)nc3cnccn23)c1 [compound 35, (3-Chloro-phenyl)-(2-phenyl-imidazo[1,2-a]pyrazin-3-yl)-amine]
FGFR-1 growth restoration (FGFR-1): − | InsR growth restoration (InsR): − | PDGFRb growth restoration (PDGFRb): − | TEK growth restoration (TEK): − | EphB2 growth restoration (EphB2): − | FGFR-4 growth restoration (FGFR-4): −

Cc1nccn2c(Nc3cccc(Cl)c3)c(-c3ccccc3)nc12 [compound 3, (3-Chloro-phenyl)-(8-methyl-2-phenyl-imidazo[1,2-a]pyrazin-3-yl)-amine]
FGFR-1 growth restoration (FGFR-1): − | InsR growth restoration (InsR): − | PDGFRb growth restoration (PDGFRb): − | TEK growth restoration (TEK): − | EphB2 growth restoration (EphB2): ++ | FGFR-4 growth restoration (FGFR-4): −

COc1cccc(-c2nc3cnccn3c2Nc2cccc(Cl)c2)c1 [compound 7, (3-Chloro-phenyl)-[2-(3-methoxy-phenyl)-imidazo[1,2-a]pyrazin-3-yl]-amine]
FGFR-1 growth restoration (FGFR-1): − | InsR growth restoration (InsR): − | PDGFRb growth restoration (PDGFRb): − | TEK growth restoration (TEK): − | EphB2 growth restoration (EphB2): − | FGFR-4 growth restoration (FGFR-4): −

Brc1cccc(Nc2c(-c3ccccc3)nc3cnccn23)c1 [compound 14, (3-Bromo-phenyl)-(2-phenyl-imidazo[1,2-a]pyrazin-3-yl)-amine]
FGFR-1 growth restoration (FGFR-1): − | InsR growth restoration (InsR): − | PDGFRb growth restoration (PDGFRb): − | TEK growth restoration (TEK): − | EphB2 growth restoration (EphB2): − | FGFR-4 growth restoration (FGFR-4): −

c1ccc(Nc2c(-c3ccccc3)nc3cnccn23)cc1 [compound 23, Phenyl-(2-phenyl-imidazo[1,2-a]pyrazin-3-yl)-amine]
FGFR-1 growth restoration (FGFR-1): − | InsR growth restoration (InsR): − | PDGFRb growth restoration (PDGFRb): − | TEK growth restoration (TEK): − | EphB2 growth restoration (EphB2): ++ | FGFR-4 growth restoration (FGFR-4): −

Cc1cccc(Nc2c(-c3ccccc3)nc3c(C)nccn23)c1 [compound 43, (8-Methyl-2-phenyl-imidazo[1,2-a]pyrazin-3-yl)-m-tolyl-amine]
FGFR-1 growth restoration (FGFR-1): − | InsR growth restoration (InsR): − | PDGFRb growth restoration (PDGFRb): − | TEK growth restoration (TEK): − | EphB2 growth restoration (EphB2): ++ | FGFR-4 growth restoration (FGFR-4): −

Cc1nccn2c(Nc3ccccc3)c(-c3ccccc3)nc12 [compound 39, (8-Methyl-2-phenyl-imidazo[1,2-a]pyrazin-3-yl)-phenyl-amine]
FGFR-1 growth restoration (FGFR-1): − | InsR growth restoration (InsR): − | PDGFRb growth restoration (PDGFRb): − | TEK growth restoration (TEK): − | EphB2 growth restoration (EphB2): +++ | FGFR-4 growth restoration (FGFR-4): −

Cc1nccn2c(Nc3cccc(F)c3)c(-c3ccccc3)nc12 [compound 44, (3-Fluoro-phenyl)-(8-methyl-2-phenyl-imidazo[1,2-a]pyrazin-3-yl)-amine]
FGFR-1 growth restoration (FGFR-1): − | InsR growth restoration (InsR): − | PDGFRb growth restoration (PDGFRb): − | TEK growth restoration (TEK): − | EphB2 growth restoration (EphB2): +++ | FGFR-4 growth restoration (FGFR-4): −

CNc1nccn2c(Nc3cccc(Cl)c3)c(-c3ccccc3)nc12 [compound 20, N′3-(3-Chloro-phenyl)-N′8-methyl-2-phenyl-imidazo[1,2-a]pyrazine-3,8-diamine]
InsR growth restoration (InsR): − | TEK growth restoration (TEK): − | EphB2 growth restoration (EphB2): −
